Assay results as given in patent publication US20060147382A1, “Synergistic combination comprising roflumilast and an anticholinergic agent selected from ipratropium, oxitropium and tiotropium salts for the treatment of respiratory diseases” (Altana Pharma AG, priority 2003, published 2006).

Tested on: methacholine-induced bronchoconstriction in guinea pigs
Assay: Inhibition of methacholine-induced bronchoconstriction in anaesthetized, mechanically ventilated guinea pigs
Format: in vivo, guinea pig
Conditions: for Effect on methacholine-induced bronchospasm (in words): versus placebo, ANOVA and Dunnett's test, ROFLUMILAST 4 mg/kg intratracheally, tiotropium-bromide 1 μg/kg i.v.
Protocol: Inhibition of Methacholine-Induced Bronchoconstriction in Guinea Pigs by ROFLUMILAST in combination with tiotropium-bromide
To assess the inhibitory effect of tiotropium-bromide, ROFLUMILAST, and the combination of both compounds on methacholine-induced bronchoconstriction in anaesthetized, mechanically ventilated guinea pigs.
Male Dunkin Hartley guinea pigs; body weight 350-450 g when performing the experiments.
75 min before methacholine-induced bronchospasm (at −75 min) animals were anaesthetized with urethane i.p. (1.2 g/kg). At −55 min for I.v. injections the right jugular vein and for ventilation the trachea was cannulated. At −45 min NaCl 0.9% or tiotropium-bromide was administered I.v. (1 μg/kg). At −30 min lactose (10 mg/kg) or ROFLUMILAST (4 mg/kg) mixed with lactose was administered intratracheally by a dry powder aerolizer. At −10 min pancuronium-bromide (1.5 mg/kg) was administered I.v. to abolish spontaneous breathing. Animals were mechanically ventilated with 60 breath/min and a tidal volume of 7 ml/kg. Dynamic lung compliance (COM) and airway conductance (CON) were calculated with the help of a computer system from airflow and ventilation pressure signals. At t=0 min methacholine was administered i.v. (60 μg/kg) to induce bronchoconstriction.
COM and CON were determined up to 120 s after methacholine-induced bronchospasm. AUCs for 0 to 120s were determined. Inhibition was calculated based on the AUC data. Data are shown as mean ±SEM. Results were taken to be significant if p<0.05 versus placebo (ANOVA and Dunnett's multiple comparison test)

[1] = male Dunkin Hartley guinea pigs, methacholine 60 μg/kg i.v., ROFLUMILAST 4 mg/kg intratracheally at -30 min, tiotropium-bromide 1 μg/kg i.v. at -45 min

Row | SMILES | Inhibition of methacholine-induced airway conductance (CON) decrease, based on AUC 0 to 120 s [1] | Effect on methacholine-induced bronchospasm (in words) | Inhibition of methacholine-induced dynamic lung compliance (COM) decrease, based on AUC 0 to 120 s [1]
1 | O=C(Nc1c(Cl)cncc1Cl)c1ccc(OC(F)F)c(OCC2CC2)c1 [ROFLUMILAST, 3-cyclopropylmethoxy-4-difluoromethoxy-N-(3,5-dichloropyrid-4-yl)benzamide] | 5.6% | no significant effect | 
2 | C[N+]1(C)[C@@H]2C[C@@H](OC(=O)C(O)(c3cccs3)c3cccs3)C[C@H]1[C@@H]1O[C@@H]12 [tiotropium-bromide] | 5.9% | no significant effect | 12%
